Test [1] deals with MDA-MB-231 cells. The test can be described thus: CellTiter-Glo Luminescent Cell Viability Assay on ER-negative breast cancer MDA-MB-231 cells. The class given is cell-based. The settings on record: average ± standard deviation when tested more than 3 times, read-out: Inhibition of the viability of breast cancer cells, IC50. The essentials:
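Cells seeded at 6×10^3 per well in DMEM with 10% FCS and exposed 72 h to compound at 0 to 100 μM (twelve concentrations, DMSO vehicle). Viability measured by CellTiter-Glo luminescence.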
In general terms: In ATP-based viability assays light output follows the ATP content of the culture.

Test [2] deals with Molt-4 cells. The test can be described thus: CellTiter-Glo Luminescent Cell Viability Assay on leukemia Molt-4 cells. The class given is cell-based. The settings on record: 72 hours, read-out: Inhibition of the viability of leukemia cells, IC50. As for the experimental part: C: In Vitro CellTiter-Glo® Luminescent Cell Viability Assay on Leukemia Molt-4 Cells
(§1) The leukemia Molt-4 cells were obtained from ATCC and maintained in RPMI-1640 and 10% fetal calf serum at 37° C., under 5% CO2 atmosphere. The cells were seeded on 96-well plate at a density of 6×10^3 cells per well. RPMI-1640 cells were treated with a test compound dissolved in DMSO at the concentrations of zero, 0.3 μM, 0.5 μM, 1 μM, 2 μM, 3 μM, 5 μM, 10 μM, 20 μM, 30 μM, 50 μM and 100 μM for 72 hours. Treated cells were examined by CellTiter-Glo® Luminescent Cell Viability Assay Kit (Promega), and luminescence values were recorded with Envision.

In test [3] the test system is HEC-1A cells. The test can be described thus: CellTiter-Glo Luminescent assay on endometrial cancer HEC-1A cells. The class given is cell-based, human. The note with it: 72 hours, read-out: Inhibition of the viability of endometrial cancer cells, IC50. On the procedure: CellTiter-Glo® Luminescent Assay to Measure the Inhibitory Activity of the Compounds on In Vitro Growth of Endometrial Cancer HEC-1A Cells
as §1, with “HEC-1A cells are endometrial cancer cell lines only expressing ER-36. Human endometrial cancer HEC-1A cells” for “The leukemia Molt-4 cells”, “in DMEM” for “in RPMI-1640”, “well. HEC-1A” for “well. RPMI-1640”, “5” for “5 μM, 10”

For test [4], the system named is K562 cells. The test can be described thus: CellTiter-Glo Luminescent Cell Viability Assay on leukemia K562 cells. In kind it is cell-based, human. The settings on record: 72 hours, read-out: Inhibition of the viability of leukemia cells, IC50. As for the experimental part: A: In Vitro CellTiter-Glo® Luminescent Cell Viability Assay on Leukemia K562 Cells
The leukemia K562 cells were obtained from ATCC and maintained in IMDM and 10% fetal calf serum at 37° C., under 5% CO2 atmosphere. The cells were seeded on 96-well plate at a density of 6×10^3 cells per well. K562 cells were treated with a test compound dissolved in DMSO at the concentrations of zero, 0.3 μM, 0.5 μM, 1 μM, 2 μM, 3 μM, 5 μM, 10 μM, 20 μM, 30 μM, 50 μM and 100 μM for 72 hours. Treated cells were examined by CellTiter-Glo® Luminescent Cell Viability Assay Kit (Promega), and luminescence values were recorded with Envision.

Test [5] relates to MCF7 cells. The test can be described thus: CellTiter-Glo Luminescent Cell Viability Assay on ER-positive breast cancer MCF-7 cells. The settings on record: average ± standard deviation when tested more than 3 times, read-out: Inhibition of the viability of breast cancer cells, IC50. The class given is cell-based, human. The essentials:
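MCF7 cells (DMEM, 10% FCS, 37 °C) treated 72 h with compound at 0–100 μM (0.3, 0.5, 1, 2, 3, 5, 10, 20, 30, 50, 100 μM). Viability measured by CellTiter-Glo luminescence.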

Test [6] deals with HL-60 cells. The test can be described thus: CellTiter-Glo Luminescent Cell Viability Assay on leukemia HL-60 cells. In kind it is cell-based, human. The note with it: 72 hours, read-out: Inhibition of the viability of leukemia cells, IC50. As for the experimental part:
B: In Vitro CellTiter-Glo® Luminescent Cell Viability Assay on Leukemia HL-60 Cells
The leukemia HL-60 cells were obtained from ATCC and maintained in IMDM and 10% fetal calf serum at 37° C., under 5% CO2 atmosphere. The cells were seeded on 96-well plate at a density of 6×10^3 cells per well. HL-60 cells were treated with a test compound dissolved in DMSO at the concentrations of zero, 0.3 μM, 0.5 μM, 1 μM, 2 μM, 3 μM, 5 μM, 10 μM, 20 μM, 30 μM, 50 μM and 100 μM for 72 hours. Treated cells were examined by CellTiter-Glo® Luminescent Cell Viability Assay Kit (Promega), and luminescence values were recorded with Envision.

Test [7] concerns SK-OV3 cells. The test can be described thus: CellTiter-Glo Luminescent Cell Viability Assay on ovary cancer SK-OV3 cells. The class given is cell-based. The settings on record: read-out: Inhibition of the viability of ovary cancer cells, IC50. As for the experimental part: C: In Vitro CellTiter-Glo® Luminescent Cell Viability Assay on Ovary Cancer SK-OV3 Cells
as §1, with “The ovary cancer SK-OV3” for “The leukemia Molt-4”, “from Cancer hospital, Chinese Academy of Medical Sciences” for “from ATCC”, “well. SK-OV3” for “well. RPMI-1640”

Test [8] deals with CoC1 cells. The test can be described thus: CellTiter-Glo Luminescent Cell Viability Assay on ovary cancer CoC1 cells. The class given is cell-based. The settings on record: 72 hours, read-out: Inhibition of the viability of ovary cancer cells, IC50. On the procedure:
B: In Vitro CellTiter-Glo® Luminescent Cell Viability Assay on Ovary Cancer CoC1 Cells
The ovary cancer CoC1 cells were obtained from Cancer hospital, Chinese Academy of Medical Sciences and maintained in RPMI-1640 and 10% fetal calf serum at 37° C., under 5% CO2 atmosphere. The cells were seeded on 96-well plate at a density of 6×10^3 cells per well. CoC1 cells were treated with a test compound dissolved in DMSO at the concentrations of zero, 0.3 μM, 0.5 μM, 1 μM, 2 μM, 3 μM, 5 μM, 10 μM, 30 μM, 50 μM and 100 μM for 72 hours. Treated cells were examined by CellTiter-Glo® Luminescent Cell Viability Assay Kit (Promega), and luminescence values were recorded with Envision.

The subject of test [9] is HO8910 cells. The test can be described thus: CellTiter-Glo Luminescent Cell Viability Assay on ovary cancer HO8910 cells. The note with it: HO-8910 cells; 72 hours; read-out: Inhibition of the viability of ovary cancer cells, IC50. The class given is cell-based. On the procedure: A: In Vitro CellTiter-Glo® Luminescent Cell Viability Assay on Ovary Cancer HO8910 Cells
as §1, with “Ovary cancer HO8910 cells” for “The leukemia Molt-4 cells”, “from Type Culture Collection of the Chinese Academy of Sciences, Shanghai,” for “from ATCC”, “well. HO8910” for “well. RPMI-1640”

The subject of test [10] is Hep3B2.1-7 cells. The test can be described thus: MTT assay, in vitro growth of liver cancer Hep3B2.1-7 cells. The settings on record: 72 hours. The class given is cell-based. As for the experimental part:
The liver cancer Hep3B2.1-7 cells were obtained from ATCC. Cells were incubated in 1640 culture medium with 5% fetal calf serum and 100 U/ml double-antibody in a cell incubator at 37° C., 5% CO2 atmosphere and passaged via conventional methods. The sample was dissolved in DMSO, formulated into 50 mg/ml stocking solution, and stored at 4° C. The test solutions at 50, 25, 12.5 and 6.25 μg/ml were formulated with culture medium immediately before use.
The adherent cells were digested with cell digestive solution, and then the exfoliated cells were collected and counted. The cell suspension was formulated with 1640 culture medium containing 5% fetal calf serum (5.0×10^4/ml). The cell suspension was seeded on 96-well plate with 100 μl/well, and maintained in a cell incubator at 37° C., 5% CO2 atmosphere for 24 hours. After that, the compounds at various concentrations were added, where solvent was taken as negative control and Taxol as positive control. 10 μl MTT (5 mg/ml) was added after 72 hours. The supernatant was removed after cultivation for 3 hours more, 150 μl DMSO was added and the formazan was dissolved on shaking. OD values were measured at 570 nm after homogeneous mixing, and inhibition rate and IC50 values were calculated based on the mean of OD values from 3 wells.
(In general: Tetrazolium dyes change colour on reduction, which living cells bring about.)

Where [11] appears, read: Homo sapiens, SK-OV-3, 72 hours.

Where two headings read alike, the source gives them in different places.

As a reminder, the IC50 is the point on the concentration scale where inhibition reaches its midpoint. `COc1c(-c2ccc(C(F)(F)F)c(F)c2)oc2c(CC=C(C)C)c(O)c(CC=C(C)C)c(O)c2c1=O` [Compound 6, 2-(3-fluoro-4-trifluoromethylphenyl)-5,7-dihydroxy-3-methoxy-6,8-di(3-methyl-2-butylene-1-yl)-4H-benzopyran-4-one]: the IC50 is 7.06 ± 2.13 µM in [1] (72 hours); above 100 µM in [2]; 4.02 µM in [3]; above 100 µM in test [4]; 5.14 ± 0.47 µM in test [5] (72 hours); above 100 µM in test [6].

In the case of `COc1c(-c2cncs2)oc2c(CC=C(C)C)c(O)c(CC=C(C)C)c(O)c2c1=O` [Compound 25, 2-(thiazol-5-yl)-5,7-dihydroxy-3-methoxy-6,8-di(3-methyl-2-buten-1-yl)-4H-benzopyran-4-one], the IC50 was 17.3 ± 6.5 µM in test [1] (Homo sapiens, MDA-MB-231, 72 h); above 100 µM in test [2] (Homo sapiens); above 100 µM in test [4] (Homo sapiens); 9.19 ± 2.47 µM in test [5] (Homo sapiens, MCF7, 72 h); 12.6 µM in test [7] (setting [11]); above 100 µM in test [6] (Homo sapiens). Moreover, the IC50 in test [8] is 14.3 µM; in test [9], above 100 µM.

Take “2-(-fluoro-4-chlorophenyl)-5,7-dihydroxy-3-methoxy-6,8-di(3-methyl-2-buten-1-yl)-4H-benzopyran-4-one [Compound 5]”: the “Inhibition on liver cancer cells, IC50” value in test [10] was 1.45 µg/mL. Further, the concentration for half-maximal inhibition (IC50) in test [1] (72 hours) was determined as 7.03 ± 1.06 µM; in test [2], 9.13 µM; in [3], 7.14 µM; in [4], 12 µM; in [5] (72 hours), 6.73 ± 1.58 µM; in [6], 8.96 µM. The IC50 in test [8] was 6.91 µM.

Consider `COc1c(-c2ccc3nccnc3c2)oc2c(CC=C(C)C)c(O)c(CC=C(C)C)c(O)c2c1=O` [Compound 18, 2-(quinoxalin-6-yl)-5,7-dihydroxy-3-methoxy-6,8-di(3-methyl-2-butylene-1-yl)-4H-benzopyran-4-one], for which the IC50 in [1] (72 hours) is 11.9 ± 0.4 µM; in test [2] it was 14.2 µM; in test [3], 13.8 µM; in test [4] it was above 100 µM; in [5] (72 hours), 12.03 ± 0.09 µM; in test [6], above 100 µM.

Turning to `COc1c(-c2ccc(C(F)(F)F)cc2)oc2c(CC=C(C)C)c(O)c(CC=C(C)C)c(O)c2c1=O` [Compound 15, 2-(4-trifluoromethylphenyl)-5,7-dihydroxy-3-methoxy-6,8-di(3-methyl-2-butylene-1-yl)-4H-benzopyran-4-one], the “Inhibition on liver cancer cells, IC50” value in test [10] was found to be 0.00138 µg/mL. Also, the concentration for half-maximal inhibition (IC50) in test [1] (72 hours) was determined as 9.91 ± 0.11 µM; in test [2], 13.2 µM; in [3], 8.35 µM; in test [4], 12.4 µM; in [5] (72 hours), 8.28 ± 2.2 µM; in test [6], 15.7 µM.

As to `COc1c(-c2ccc(F)c(Cl)c2)oc2c(CC=C(C)C)c(O)c(CC=C(C)C)c(O)c2c1=O` [Compound 8, 2-(3-chloro-4-fluorophenyl)-5,7-dihydroxy-3-methoxy-6,8-di(3-methyl-2-butylene-1-yl)-4H-benzopyran-4-one], in [10], the “Inhibition on liver cancer cells, IC50” value was 1.46 µg/mL. In addition, the IC50 in test [1] (72 hours) amounted to 9.96 ± 1.97 µM; in [2] it was 15.3 µM; in test [4], 12.8 µM; in test [5] (72 hours), 8.58 ± 0.24 µM; in test [7] (72 hours) it was 24.3 µM; in test [6] it was 17.9 µM. The IC50 in test [8] amounted to 11.8 µM; in test [9], 22.3 µM.

In the case of `COc1c(-c2cc(F)cc(F)c2)oc2c(CC=C(C)C)c(O)c(CC=C(C)C)c(O)c2c1=O` [Compound 2, 2-(3,5-difluorophenyl)-5,7-dihydroxy-3-methoxy-6,8-di(3-methyl-2-buten-1-yl)-4H-benzopyran-4-one], the IC50 in [1] (Homo sapiens, MDA-MB-231, 72 h) is 11.3 ± 1.38 µM; in test [2] (Homo sapiens), above 100 µM; in [4] (Homo sapiens) it was above 100 µM; in test [5] (Homo sapiens, MCF7, 72 h), 6.51 ± 1.42 µM; in test [7] (setting [11]), 7.22 µM; in [6] (Homo sapiens), above 100 µM. The IC50 in test [8] worked out at 5.19 µM; in test [9], 15.7 µM.

(Values after patent US9090583B2, “Benzopyrone estrogen receptor regulator” (BEIJING SHENOGEN PHARMA GROUP LTD., priority 2010, dated 2015).)
